Results: ChEMBL document CHEMBL1667721, “Isolation, structure elucidation, and cytotoxic evaluation of furanonaphthoquinones from in vitro plantlets and cultures of Streptocarpus dunnii” (J Nat Prod, 2011)

Assays:
MCF7 [1] = test: Cytotoxicity against human MCF7 cells after 6 days
BT-474 [2] = test: Cytotoxicity against human BT474 cells after 6 days
[3] = Cytotoxicity against human Hs 578T cells after 6 days
MIA PaCa-2 [4] = test: Cytotoxicity against human MIAPaCa2 cells after 6 days
MCF7 [5] = test: Cytotoxicity against human MCF7 cells after 24 hrs; type: functional, cell-based
BT-474 [6] = test: Cytotoxicity against human BT474 cells after 24 hrs; type: functional, cell-based
[7] = Cytotoxicity against human Hs 578T cells after 24 hrs; type: functional, cell-based
MIA PaCa-2 [8] = test: Cytotoxicity against human MIAPaCa2 cells after 24 hrs; type: functional, cell-based
[9] = Homo sapiens, MCF7, 6 days, read-out: IC50
[10] = Homo sapiens, BT-474, 6 days, read-out: IC50
[11] = Homo sapiens, Hs-578T, 6 days, read-out: IC50
[12] = Homo sapiens, MIA PaCa-2, 6 days, read-out: IC50

SMILES | IC50 (MCF7 [1]; [9]) | IC50 (BT-474 [2]; [10]) | IC50 [3, 11] | IC50 (MIA PaCa-2 [4]; [12]) | also measured
C[C@H]1OC2=C(C(=O)c3ccccc3C2=O)C1(C)C | 5.8 µM | 4.5 µM | > 10 µM | 4.6 µM | –
C[C@H]1OC2=C(C(=O)c3ccc(O)cc3C2=O)C1(C)C | 5.7 µM | 4.9 µM | > 10 µM | 6.7 µM | –
Cc1ccc2c(c1O)C(=O)c1ccccc1C2=O | – | – | – | – | IC50 (MCF7 [5]): Not Active; IC50 (BT-474 [6]): Not Active; IC50 [7]: Not Active; IC50 (MIA PaCa-2 [8]): Not Active
COc1cc2c(cc1O)C(=O)C1=C(O[C@H](C)C1(C)C)C2=O | – | – | – | – | IC50 (MCF7 [1]; mcf7): Not Active; IC50 (BT-474 [2]; bt-474): Not Active; IC50 ([3]; hs-578t): Not Active; IC50 (MIA PaCa-2 [4]; mia paca-2): Not Active
C[C@H]1OC2=C(C(=O)C(=O)c3ccccc32)C1(C)C [(3R)-DUNNIONE] | 2.3 µM | 1 µM | 5 µM | 1.9 µM | –
